Source: US10881110B2, “Herbicidal compositions comprising isoxazolo[5,4-b]pyridines” (BASF SE, priority 2014, dated 2021)

Columns and labels:
Experiment in all cases: greenhouse post-emergence herbicidal test
CONAR = type: in vivo, Convolvulus arvensis; set-up: key: rating on a scale from 0 to 100
Summary of the method: (§1)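 Combination activity judged against additive expectation by Colby, E=X+Y−(X·Y/100), from 0–100 damage ratings taken 20 days post-spray. Plants at 1–15 cm in loamy sand (69.9% sand) were sprayed with components formulated as 10% w/w emulsion concentrate in water.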

POLPE = type: in vivo, Persicaria maculosa; set-up: key: scale 0 to 100
Procedure: (§2) The culture containers used were plastic pots containing medium loamy sand with approximately 4.6% of humus and 69.9% sand as substrate. The seeds of the test plants were sown separately for each species.
(§3) For the post-emergence treatment, the test plants were grown to a plant height of from 1 to 15 cm, depending on the plant habit, and only then treated with the active compounds which had been suspended or emulsified in water. To this end, the test plants were either sown directly, and grown in the same containers, or they were first grown separately as seedlings and transplanted into the test containers a few days prior to treatment.
(§4) Depending on the species, the plants were kept at 10-25° C. and 20-35° C., respectively.
(§5) The test period extended over 1 to 3 weeks. During this time, the plants were tended and their response to the individual treatments was evaluated 20 days after treatment except mentioned otherwise.
(§6) Evaluation was carried out using a scale from 0 to 100. 100 means no emergence of the plants, or complete destruction of at least the above-ground parts, and 0 means no damage or normal course of growth.
(§7) The respective stated components A and B, and, if appropriate, C, were formulated as a 10% by weight strength emulsion concentrate and, with addition of the amount of solvent system, introduced into the spray liquor used for applying the active compound. In the examples, the solvent used was water.
(§8) In the examples below, using the method of S. R. Colby (1967) “Calculating synergistic and antagonistic responses of herbicide combinations”, Weeds 15, p. 22 ff., the value E, which is expected if the activity of the individual active compounds is only additive, was calculated. E=X+Y−(X·Y/100)

POLCO = type: in vivo, Polygonum convolvulus; set-up: key to herbicidal activity against POLCO found: rating on a scale from 0 to 100; settings: post emergence
Summary of the method: (§9)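 Herbicidal activity scored on a 0 (no damage) to 100 (plants destroyed) scale, usually 20 days after water-based spraying of 1–15 cm plants grown in loamy sand at 10-25 °C or 20-35 °C depending on species. Components were applied from 10% emulsion concentrates; Colby's E=X+Y−(X·Y/100) gives the additive expectation.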

LAMAM = type: in vivo, Lamium amplexicaule; set-up: key: scale 0 to 100; settings: application rate a.i.: I.1 31.25 g/ha, B.139 (pyroxasulfone) 25 g/ha, alone or as mixture (composition 1.139)
Procedure: as §2, §3, §4, §5, §6, §7, §8

SEBEX = type: in vivo, Sesbania exaltata; settings: application rate a.i.: I.1 31.25 g/ha, B.139 (pyroxasulfone) 25 g/ha, alone or as mixture (composition 1.139)
Procedure: as §2, §3, §4, §5, §6, §7, §8

AMBEL = type: in vivo, Ambrosia artemisiifolia; set-up: key: rating on a scale from 0 to 100
Summary of the method: as §1

ABUTH = type: in vivo, Abutilon theophrast; set-up: key to herbicidal activity against ABUTH found: rating on a scale from 0 to 100; settings: post emergence
Summary of the method: as §1

GERPU = type: in vivo, Geranium pusillum; settings: application rate a.i.: I.1 31.25 g/ha, alone or as mixture (composition 1.139)
Procedure: as §2, §3, §4, §5, §6, §7, §8

CHEAL = type: in vivo, Chenopodium album; settings: a.i. g/ha: I.1 20.8, B.192 62.5, 20 days after treatment
Summary of the method: as §1

SETVI = type: in vivo, Setaria viridis; settings: a.i. g/ha: I.1 20.8, B.192 62.5, 20 days after treatment
Procedure: as §2, §3, §4, §5
Evaluation was carried out using a scale from 0 to 100. […]
In the examples below, using the method of S. R. Colby (1967) “Calculating synergistic and antagonistic responses of herbicide combinations”, Weeds 15, p. 22 ff., the value E, which is expected if the activity of the individual active compounds is only additive, was calculated. […]

AMARE = type: in vivo, Amaranthus retroflexus; settings: a.i. g/ha: I.1 20.8, B.192 62.5, 20 days after treatment
Procedure: as §2, §3, §4, §5, §6, §7, §8

MATCH = type: in vivo, Matricaria recutita; settings: post emergence
Summary of the method: as §1

KCHSC = type: in vivo, Kochia scoparia; set-up: key to herbicidal activity against KCHSC found: rating on a scale from 0 to 100; settings: post emergence, 6 days after treatment
Summary of the method: as §9

SASKR = type: in vivo, Salsola kali; set-up: key: scale 0 to 100; settings: 6 days after treatment
Procedure: as §2, §3, §4, §5, §6, §7, §8

ERICA = type: in vivo, Conyza canadensis; settings: post emergence; 6 days after treatment; g/ha a.i.: I.1 125; naptalam 50; mixture 125+50
Summary of the method: as §1

SORVU = type: in vivo; settings: 6 days after treatment
VIOAR = type: in vivo, Viola arvensis; set-up: key to herbicidal activity against VIOAR found / herbicidal activity against VIOLA found: rating on a scale from 0 to 100; settings: post emergence, 6 days after treatment
Summary of the method: as §9

POLAV = type: in vivo, Polygonum aviculare; set-up: key: rating on a scale from 0 to 100; settings: 6 days after treatment
Procedure: as §2, §3, §4, §5, §6, §7, §8

IPOHE = type: in vivo, Ipomoea hederacea; set-up: key to herbicidal activity against IPOHE found: rating on a scale from 0 to 100; settings: post emergence, 6 days after treatment
Summary of the method: as §9

GALAP = type: in vivo, Galium aparine; set-up: key to herbicidal activity against GALAP found: rating on a scale from 0 to 100; settings: post emergence, 6 days after treatment, g/ha a.i.: I.1 62.5
Summary of the method: as §9

STEME = type: in vivo, Stellaria media; set-up: key: scale 0 to 100; settings: 6 days after treatment, g/ha a.i.: I.1 31.25, B.96 35, mixture 31.25+35
Summary of the method: as §1

[1] = application rate a.i.: I.1 31.25 g/ha, B.139 (pyroxasulfone) 12.5 g/ha, alone or as mixture (composition 1.139)
[2] = application rate a.i.: I.1 31.25 g/ha, B.139 (pyroxasulfone) 25 g/ha, alone or as mixture (composition 1.139)
[3] = a.i. g/ha: I.1 20.8, B.192 62.5, 20 days after treatment
[4] = g/ha a.i.: I.1 31.25, naptalam 200, mixture 31.25+200
[5] = g/ha a.i.: I.1 62.5, naptalam 50, mixture 62.5+50
[6] = g/ha a.i.: I.1 62.5, naptalam 200, mixture 62.5+200
[7] = 6 days after treatment, g/ha a.i.: I.1 31.25, naptalam 50, mixture 31.25+50
[8] = 6 days after treatment, g/ha a.i.: I.1 31.25, naptalam 100, mixture 31.25+100
[9] = 6 days after treatment, g/ha a.i.: I.1 62.5, naptalam 50, mixture 62.5+50
[10] = g/ha a.i.: I.1 62.5, naptalam 100, mixture 62.5+100
[11] = g/ha a.i.: I.1 31.25, B.96 35, mixture 31.25+35
[12] = g/ha a.i.: I.1 31.25, B.96 70, mixture 31.25+70
[13] = g/ha a.i.: I.1 31.25, B.96 140, mixture 31.25+140
[14] = g/ha a.i.: I.1 62.5, B.96 35, mixture 62.5+35
[15] = g/ha a.i.: I.1 62.5, B.96 70, mixture 62.5+70
[16] = g/ha a.i.: I.1 62.5, B.96 140, mixture 62.5+140
[17] = 6 days after treatment, g/ha a.i.: I.1 62.5, B.96 140, mixture 62.5+140
[18] = 6 days after treatment, g/ha a.i.: I.1 31.25, B.96 35, mixture 31.25+35
[19] = 6 days after treatment, g/ha a.i.: I.1 31.25, B.96 70, mixture 31.25+70

## Cn1nc(C(F)(F)F)c(CS(=O)(=O)C2=NOC(C)(C)C2)c1OC(F)F [B.139, pyroxasulfone]
CONAR; [1]
  herbicidal activity against CONAR found: 60
CONAR; [2]
  herbicidal activity against CONAR found: 60
POLPE; [1]
  herbicidal activity against POLPE found: 55
POLCO; [1]
  herbicidal activity against POLCO found: 15
LAMAM
  herbicidal activity against LAMAM, found: 45
SEBEX
  herbicidal activity against SEBEX, found: 35
AMBEL; [1]
  herbicidal activity against AMBEL found: 10
ABUTH; [2]
  herbicidal activity against ABUTH found: 60
GERPU; B.139 (pyroxasulfone) 12.5 g/ha
  herbicidal activity against GERPU, found: 0
GERPU; B.139 (pyroxasulfone) 25 g/ha
  herbicidal activity against GERPU, found: 25

## COC(=O)Nc1cccc(OC(=O)Nc2cccc(C)c2)c1 [B.192, phenmedipham]
CHEAL
  herbicidal activity against CHEAL found: 50%
SETVI
  herbicidal activity against SETVI found: 65%
AMARE
  herbicidal activity against AMARE found: 35%
AMBEL; [3]
  herbicidal activity against AMBEL found: 90%
MATCH; [3]
  herbicidal activity against MATCH found: 50%

## O=C(O)c1ccccc1C(=O)Nc1cccc2ccccc12 [naptalam]
KCHSC; g/ha a.i.: I.1 31.25, naptalam 100, mixture 31.25+100
  herbicidal activity against KCHSC found: 85
KCHSC; [4]
  herbicidal activity against KCHSC found: 85
SASKR; [4]
  herbicidal activity against SASKR found: 80
SASKR; [5]
  herbicidal activity against SASKR found: 70
SASKR; [6]
  herbicidal activity against SASKR found: 80
CONAR; [7]
  herbicidal activity against CONAR found: 80
CONAR; [8]
  herbicidal activity against CONAR found: 80
CONAR; 6 days after treatment, g/ha a.i.: I.1 31.25, naptalam 200, mixture 31.25+200
  herbicidal activity against CONAR found: 80
CONAR; 6 days after treatment, g/ha a.i.: I.1 125, naptalam 100, mixture 125+100
  herbicidal activity against CONAR found: 80
ERICA
  herbicidal activity against ERICA found: 80
POLCO; [7]
  herbicidal activity against POLCO found: 75
POLCO; [9]
  herbicidal activity against POLCO found: 75
SORVU; [6]
  herbicidal activity against SORVU found: 50
ABUTH; [8]
  herbicidal activity against ABUTH found: 85
VIOAR; [4]
  herbicidal activity against VIOAR found: 70
VIOAR; [10]
  herbicidal activity against VIOAR found: 65
VIOAR; [6]
  herbicidal activity against VIOAR found: 70
POLAV; g/ha a.i.: I.1 31.25, naptalam 50, mixture 31.25+50
  herbicidal activity against POLAV found: 70
POLAV; [4]
  herbicidal activity against POLAV found: 75
POLAV; [5]
  herbicidal activity against POLAV found: 70
POLAV; [10]
  herbicidal activity against POLAV found: 75
POLAV; [6]
  herbicidal activity against POLAV found: 75
MATCH; [7]
  herbicidal activity against MATCH found: 30
MATCH; [8]
  herbicidal activity against MATCH found: 65
MATCH; [9]
  herbicidal activity against MATCH found: 30

## CS(=O)(=O)c1ccc(C(=O)C2=C(Sc3ccccc3)C3CCC(C3)C2=O)c(Cl)c1 (stereo not shown) [B.96, benzobicyclon]
KCHSC; [11]
  herbicidal activity against KCHSC found: 35
KCHSC; [12]
  herbicidal activity against KCHSC found: 40
KCHSC; [13]
  herbicidal activity against KCHSC found: 55
KCHSC; [14]
  herbicidal activity against KCHSC found: 35
KCHSC; [15]
  herbicidal activity against KCHSC found: 40
SASKR; [16]
  herbicidal activity against SASKR found: 65
CONAR; [17]
  herbicidal activity against CONAR found: 75
POLPE; [18]
  herbicidal activity against POLPE found: 85
IPOHE; [11]
  herbicidal activity against IPOHE found: 70
IPOHE; [12]
  herbicidal activity against IPOHE found: 70
IPOHE; [13]
  herbicidal activity against IPOHE found: 70
IPOHE; [16]
  herbicidal activity against IPOHE found: 70
POLCO; [19]
  herbicidal activity against POLCO found: 70
POLCO; 6 days after treatment, g/ha a.i.: I.1 31.25, B.96 140, mixture 31.25+140
  herbicidal activity against POLCO found: 80
POLCO; 6 days after treatment, g/ha a.i.: I.1 62.5, B.96 70, mixture 62.5+70
  herbicidal activity against POLCO found: 70
POLCO; [17]
  herbicidal activity against POLCO found: 80
SORVU; [13]
  herbicidal activity against SORVU found: 60
GALAP; B.96 70, mixture 62.5+70
  herbicidal activity against GALAP found: 75
GALAP; B.96 140, mixture 62.5+140
  herbicidal activity against GALAP found: 80
ABUTH; [18]
  herbicidal activity against ABUTH found: 80
ABUTH; [19]
  herbicidal activity against ABUTH found: 85
VIOAR; [11]
  herbicidal activity against VIOAR found: 65
VIOAR; [12]
  herbicidal activity against VIOAR found: 65
VIOAR; [13]
  herbicidal activity against VIOAR found: 65
VIOAR; [14]
  herbicidal activity against VIOAR found: 65
VIOAR; [15]
  herbicidal activity against VIOAR found: 65
VIOAR; [16]
  herbicidal activity against VIOAR found: 65
STEME
  herbicidal activity against STEME found: 85
POLAV; [15]
  herbicidal activity against POLAV found: 70
POLAV; [16]
  herbicidal activity against POLAV found: 70
